Data taken from patent US6479435B1, “Diaryl ethers and processes for their preparation and herbicidal and desiccant compositions containing them” (ISK Americas Incorporated, priority 1997, dated 2002).

Key:
Type in all cases: in vivo
[1] = system: Johnsongrass (Sorghum halepense, SORHA); assay: Pre-emerge greenhouse herbicide test, phytotoxicity rating; settings: 14 days after application, rating scale 0-100
In short: (§1)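 Seeds sown in sandy loam mix one day before track-sprayer application of compounds in acetone at 125–1000 g ai/ha (187 l/ha), then surface-watered to incorporate and bottom-watered. Visual rating 14 days after application on a 0–100 scale (0 = no damage, 100 = all plants dead).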

[2] = system: barnyardgrass (Echinochloa crusgalli, ECHCG); assay: as above; settings: 14 days after application, rating scale 0-100
In short: as §1

[3] = system: common ragweed (Ambrosia artemisiifolia L., AMBEL); assay: as above; settings: 14 days after application, rating scale 0-100
In short: as §1

[4] = system: green foxtail (Setaria viridis, SETVI); assay: as above; settings: 14 days after application, rating scale 0-100
In short: as §1

[5] = system: ivyleaf morningglory (Ipomoea hederacea, IPOHE); assay: as above; settings: 14 days after application, rating scale 0-100
In short: as §1

[6] = system: lambsquarters (Chenopodium album, CHEAL); assay: as above; settings: 14 days after application, rating scale 0-100
In short: as §1

[7] = system: large crabgrass (Digitaria sanguinalis, DIGSA); assay: as above; settings: 14 days after application, rating scale 0-100
In short: as §1

[8] = system: redroot pigweed (Amaranthus retroflexus, AMARE); assay: as above; settings: 14 days after application, rating scale 0-100
In short: as §1

[9] = system: sicklepod (Cassia obtusifolia, CASOB); assay: as above; settings: 14 days after application, rating scale 0-100
In short: as §1

[10] = system: velvetleaf (Abutilon theophrasti, ABUTH); assay: as above; settings: 14 days after application, rating scale 0-100
In short: as §1

[11] = system: field corn (Zea mays L., var. Dekalb 535, CORN); assay: Pre-emerge greenhouse test, crop damage rating; settings: 14 days after application, rating scale 0-100
In short: as §1

[12] = system: upland rice (Oryza sp., var.Tebonnet, RICE); assay: Pre-emerge greenhouse test, crop damage rating; settings: 14 days after application, rating scale 0-100
In short: as §1

[13] = system: soybean (Glycine max L., var. Pella 86, SOY); assay: Pre-emerge greenhouse test, crop damage rating; parameters: key to SOY crop damage rating: 0 = no damage, 100 = complete death of all plants; settings: 14 days after application, rating scale 0-100
In short: as §1

[14] = system: common ragweed (Ambrosia artemisiifolia L., AMBEL); assay: Post-emerge greenhouse herbicide test, phytotoxicity rating; settings: 14 days after application, scale 0-100
In short: (§2)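 Compounds in acetone with 0.25% v/v non-ionic surfactant were track-sprayed at 187 l/ha over plants at the 2-3 leaf stage, at 63 to 1000 g ai/ha. Pots were bottom-watered. Injury was scored visually 14 days later on a 0-100 scale, where 0 is no damage and 100 is complete plant death.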

[15] = system: Johnsongrass (Sorghum halepense, SORHA); assay: as above; settings: 14 days after application, scale 0-100
In short: as §2

[16] = system: barnyardgrass (Echinochloa crusgalli, ECHCG); assay: as above; settings: 14 days after application, scale 0-100
In short: as §2

[17] = system: green foxtail (Setaria viridis, SETVI); assay: as above; settings: 14 days after application, scale 0-100
In short: as §2

[18] = system: ivyleaf morningglory (Ipomoea hederacea, IPOHE); assay: as above; settings: 14 days after application, scale 0-100
In short: as §2

[19] = system: lambsquarters (Chenopodium album, CHEAL); assay: as above; settings: 14 days after application, scale 0-100
In short: as §2

[20] = system: large crabgrass (Digitaria sanguinalis, DIGSA); assay: as above; settings: 14 days after application, scale 0-100
In short: as §2

[21] = system: redroot pigweed (Amaranthus retroflexus, AMARE); assay: as above; settings: 14 days after application, scale 0-100
In short: as §2

[22] = system: sicklepod (Cassia obtusifolia, CASOB); assay: as above; settings: 14 days after application, scale 0-100
In short: as §2

[23] = system: velvetleaf (Abutilon theophrasti, ABUTH); assay: as above; settings: 14 days after application, scale 0-100
In short: as §2

[24] = system: field corn (Zea mays L., var. Dekalb 535, CORN); assay: Post-emerge greenhouse test, crop damage rating; settings: 14 days after application, scale 0-100
In short: as §2

[25] = system: upland rice (Oryza sp., var.Tebonnet, RICE); assay: Post-emerge greenhouse test, crop damage rating; settings: 14 days after application, scale 0-100
In short: as §2

[26] = system: soybean (Glycine max L., var. Pella 86, SOY); assay: Post-emerge greenhouse test, crop damage rating; parameters: key to crop damage rating SOY: 0-100 scale: 0 = no damage, 100 = complete death of all plants; settings: 14 days after application, scale 0-100
In short: as §2

## CC(C)S(=O)(=O)c1cccnc1Oc1cc(-n2c(=O)n3n(c2=S)CCCC3)c(F)cc1Cl [Compound 8-37]
[1]; Rate 125 g al/ha
  SORHA phytotoxicity rating: 20
[1]; Rate 500 g al/ha
  SORHA phytotoxicity rating: 80
[2]; Rate 125 g al/ha
  ECHCG phytotoxicity rating: 30
[2]; Rate 500 g al/ha
  ECHCG phytotoxicity rating: 100
[3]; Rate 125 g al/ha
  AMBEL phytotoxicity rating: 100
[3]; Rate 500 g al/ha
  AMBEL phytotoxicity rating: 100
[4]; Rate 125 g al/ha
  SETVI phytotoxicity rating: 100
[4]; Rate 500 g al/ha
  SETVI phytotoxicity rating: 100
[5]; Rate 125 g al/ha
  IPOHE phytotoxicity rating: 30
[5]; Rate 500 g al/ha
  IPOHE phytotoxicity rating: 85
[6]; Rate 125 g al/ha
  CHEAL phytotoxicity rating: 100
[6]; Rate 500 g al/ha
  CHEAL phytotoxicity rating: 100
[7]; Rate 125 g al/ha
  DIGSA phytotoxicity rating: 80
[7]; Rate 500 g al/ha
  DIGSA phytotoxicity rating: 100
[8]; Rate 125 g al/ha
  AMARE phytotoxicity rating: 100
[8]; Rate 500 g al/ha
  AMARE phytotoxicity rating: 100
[9]; Rate 125 g al/ha
  CASOB phytotoxicity rating: 0
[9]; Rate 500 g al/ha
  CASOB phytotoxicity rating: 80
[10]; Rate 125 g al/ha
  ABUTH phytotoxicity rating: 100
[10]; Rate 500 g al/ha
  ABUTH phytotoxicity rating: 100
[11]; Rate 125 g al/ha
  CORN crop damage rating: 0
[11]; Rate 500 g al/ha
  CORN crop damage rating: 25
[12]; Rate 125 g al/ha
  RICE crop damage rating: 10
[12]; Rate 500 g al/ha
  RICE crop damage rating: 80
[13]; Rate 125 g al/ha
  SOY crop damage rating: 50
[13]; Rate 500 g al/ha
  SOY crop damage rating: 80
[14]; rate 63 g ai/ha
  phytotoxicity rating AMBEL: 30
[14]; rate 500 g ai/ha
  phytotoxicity rating AMBEL: 60
[15]; rate 63 g ai/ha
  phytotoxicity rating SORHA: 0
[15]; rate 500 g ai/ha
  phytotoxicity rating SORHA: 50
[16]; rate 63 g ai/ha
  phytotoxicity rating ECHCG: 0
[16]; rate 500 g ai/ha
  phytotoxicity rating ECHCG: 10
[17]; rate 63 g ai/ha
  phytotoxicity rating SETVI: 0
[17]; rate 500 g ai/ha
  phytotoxicity rating SETVI: 30
[18]; rate 63 g ai/ha
  phytotoxicity rating IPOHE: 95
[18]; rate 500 g ai/ha
  phytotoxicity rating IPOHE: 80
[19]; rate 63 g ai/ha
  phytotoxicity rating CHEAL: 90
[19]; rate 500 g ai/ha
  phytotoxicity rating CHEAL: 90
[20]; rate 63 g ai/ha
  phytotoxicity rating DIGSA: 0
[20]; rate 500 g ai/ha
  phytotoxicity rating DIGSA: 0
[21]; rate 63 g ai/ha
  phytotoxicity rating AMARE: 90
[21]; rate 500 g ai/ha
  phytotoxicity rating AMARE: 95
[22]; rate 63 g ai/ha
  phytotoxicity rating CASOB: 100
[22]; rate 500 g ai/ha
  phytotoxicity rating CASOB: 95
[23]; rate 63 g ai/ha
  phytotoxicity rating ABUTH: 100
[23]; rate 500 g ai/ha
  phytotoxicity rating ABUTH: 100
[24]; rate 63 g ai/ha
  crop damage rating CORN: 0
[24]; rate 500 g ai/ha
  crop damage rating CORN: 40
[25]; rate 63 g ai/ha
  crop damage rating RICE: 0
[25]; rate 500 g ai/ha
  crop damage rating RICE: 35
[26]; rate 63 g ai/ha
  crop damage rating SOY: 90
[26]; rate 500 g ai/ha
  crop damage rating SOY: 100

## COc1cc(Oc2cc(-n3c(=O)n4n(c3=S)CCCC4)c(F)cc2Cl)nc(OC)n1 [Compound 8-32]
[1]; Rate 125 g al/ha
  SORHA phytotoxicity rating: 10
[1]; Rate 500 g al/ha
  SORHA phytotoxicity rating: 30
[2]; Rate 125 g al/ha
  ECHCG phytotoxicity rating: 0
[2]; Rate 500 g al/ha
  ECHCG phytotoxicity rating: 20
[3]; Rate 125 g al/ha
  AMBEL phytotoxicity rating: 0
[3]; Rate 500 g al/ha
  AMBEL phytotoxicity rating: 50
[4]; Rate 125 g al/ha
  SETVI phytotoxicity rating: 10
[4]; Rate 500 g al/ha
  SETVI phytotoxicity rating: 100
[5]; Rate 125 g al/ha
  IPOHE phytotoxicity rating: 40
[5]; Rate 500 g al/ha
  IPOHE phytotoxicity rating: 90
[6]; Rate 125 g al/ha
  CHEAL phytotoxicity rating: 90
[6]; Rate 500 g al/ha
  CHEAL phytotoxicity rating: 100
[7]; Rate 125 g al/ha
  DIGSA phytotoxicity rating: 20
[7]; Rate 500 g al/ha
  DIGSA phytotoxicity rating: 90
[8]; Rate 125 g al/ha
  AMARE phytotoxicity rating: 50
[8]; Rate 500 g al/ha
  AMARE phytotoxicity rating: 100
[9]; Rate 125 g al/ha
  CASOB phytotoxicity rating: 30
[9]; Rate 500 g al/ha
  CASOB phytotoxicity rating: 80
[10]; Rate 125 g al/ha
  ABUTH phytotoxicity rating: 95
[10]; Rate 500 g al/ha
  ABUTH phytotoxicity rating: 100
[11]; Rate 125 g al/ha
  CORN crop damage rating: 0
[11]; Rate 500 g al/ha
  CORN crop damage rating: 10
[12]; Rate 125 g al/ha
  RICE crop damage rating: 0
[12]; Rate 500 g al/ha
  RICE crop damage rating: 40
[13]; Rate 125 g al/ha
  SOY crop damage rating: 0
[13]; Rate 500 g al/ha
  SOY crop damage rating: 0
[14]; rate 63 g ai/ha
  phytotoxicity rating AMBEL: 50
[14]; rate 500 g ai/ha
  phytotoxicity rating AMBEL: 90
[15]; rate 63 g ai/ha
  phytotoxicity rating SORHA: 0
[15]; rate 500 g ai/ha
  phytotoxicity rating SORHA: 20
[16]; rate 63 g ai/ha
  phytotoxicity rating ECHCG: 0
[16]; rate 500 g ai/ha
  phytotoxicity rating ECHCG: 10
[17]; rate 63 g ai/ha
  phytotoxicity rating SETVI: 10
[17]; rate 500 g ai/ha
  phytotoxicity rating SETVI: 40
[18]; rate 63 g ai/ha
  phytotoxicity rating IPOHE: 100
[18]; rate 500 g ai/ha
  phytotoxicity rating IPOHE: 100
[19]; rate 63 g ai/ha
  phytotoxicity rating CHEAL: 95
[19]; rate 500 g ai/ha
  phytotoxicity rating CHEAL: 100
[20]; rate 63 g ai/ha
  phytotoxicity rating DIGSA: 0
[20]; rate 500 g ai/ha
  phytotoxicity rating DIGSA: 0
[21]; rate 63 g ai/ha
  phytotoxicity rating AMARE: 90
[21]; rate 500 g ai/ha
  phytotoxicity rating AMARE: 100
[22]; rate 63 g ai/ha
  phytotoxicity rating CASOB: 10
[22]; rate 500 g ai/ha
  phytotoxicity rating CASOB: 100
[23]; rate 63 g ai/ha
  phytotoxicity rating ABUTH: 100
[23]; rate 500 g ai/ha
  phytotoxicity rating ABUTH: 100
[24]; rate 63 g ai/ha
  crop damage rating CORN: 5
[24]; rate 500 g ai/ha
  crop damage rating CORN: 5
[25]; rate 63 g ai/ha
  crop damage rating RICE: 0
[25]; rate 500 g ai/ha
  crop damage rating RICE: 10
[26]; rate 63 g ai/ha
  crop damage rating SOY: 30
[26]; rate 500 g ai/ha
  crop damage rating SOY: 80
